Experimental data published in patent publication US20240423203A1, “Herbicidally Active Combination for Agricultural Applications” (priority 2021, published 2024).

Experiments:
[1] = test system: potato plants; assay: Desiccant action on potato leaf, field plots, visual evaluation 15 DAA (Example 3); assay type: in vivo; conditions: for Desiccation (%): potato leaf, 15 DAA; for effect in combination with the herbicides tested (synergistic / antagonist): potato desiccation, Colby analysis
Excerpt: The desiccant was applied by spraying.

[2] = test system: potato plants; assay: Desiccant action on potato leaf of carfentrazone-ethyl with polyferulates of different molecular weight (Example 4); conditions: application rate 25 g a.i. ha^−1, 15 DAA
[3] = test system: Lemna minor; assay: Herbicide activity on Lemna minor in vitro, fresh weight reduction (Example 5); assay type: in vivo; conditions: all chemicals at 10 mg/L; 7-day exposure
Protocol: The experiment was carried out in Lemna minor growing in vitro conditions. Lemna minor (duckweed) was bought in the local market. A stock culture was maintained on modified Hoagland medium in a controlled environment. The pH of the medium was adjusted to 6.0, and the plants were grown under static conditions in a plant growth chamber at 25±2° C., light/dark regime of 16 h/8 h.
For the experiments, fronds free from any visible chlorosis were taken from the stock cultures and exposed to the appropriate treatment. For each treatment, we used six repetitions with three fronds per repetition as the initial frond number. Individual fronds were transferred to a 12 well multiplate containing Hoagland medium (control), Hoagland medium containing polyferulates, herbicides or the combination as shown in Table 8. All chemicals were evaluated at the same concentration (10 mg/L). The multiplate was covered with a transparent cover to prevent evaporation. The herbicide activity was evaluated as fresh weight reduction compared to untreated plants after one week of incubation in the described conditions.

[4] = test system: Echinochloa colona; assay: Herbicide activity on Echinochloa colona, visual evaluation 20 DAT (Example 6); assay type: in vivo
Excerpt: Echinochloa colona is a cosmopolitan weed common in crops (mainly rice, maize and vegetables), gardens, roadsides, disturbed sites, waste areas and pastures. It also grows along waterways, on the margins of lakes and ponds, in swamps and wetlands, and in other damp habitats. It has the potential to invade natural areas and completely outcompete native vegetation. This weed pose a significant threat to rice productivity globally and are usually reported as noxious weeds in several economically important crops around the world. E. colona has vigorous growth traits and high seed production since each E. colona plant can produce up to 42,000 seeds. The experiment in Echinochloa colona plants was carried out in independent pots and in four replications. […] The products were applied by spraying. The herbicide activity was visually evaluated 20 days after treatment.

[5] = test system: potato plants; assay: Greenhouse potato trial: fresh weight reduction and quantum yield of PSII (Example 7); assay type: in vivo; conditions: for Fresh weight of the plants (% of control): 14 DAA; for Quantum yield of PSII: three days after foliar application
Protocol: The trial was carried out in a greenhouse in potato plants. The desiccant (pyraflufen-ethyl, a Protoporphyrinogen Oxidase (PPO) Inhibitor) was applied by spraying at different percentage of the recommended doses alone or combined with polyferulates. The effect of the herbicide was first evaluated by measurements of the photosynthetic capacity of treated leaves using the QY (quantum yield) three days after foliar application and the final desiccation efficiency was evaluated 14 days after treatment. The herbicide activity (desiccation efficiency) was evaluated as fresh weight reduction respect to untreated plants (control) an expressed in percentage.

[6] = test system: potato plants; assay: Desiccant action on potato leaf in function of polyferulate application timing (Example 8); assay type: in vivo; conditions: application rate 10.6 g a.i. ha^−1; 15 days after treatment
Excerpt: Polyferulates were applied the day before the desiccant spraying (D−1), in tank mix combination with the desiccant (D−0) or the day after the desiccant spraying (D+1). […] The desiccant was applied by spraying.

[7] = test system: Tomato (Solanum lycopersicum) plants; assay: Herbicide uptake into plant foliage: distribution of pyraflufen-ethyl between leaf fractions (Example 9); assay type: in vivo; conditions: tomato leaves
Protocol: Tomato (Solanum lycopersicum) plants were sprayed with a diluted solution of pyraflufen-ethyl herbicide or a diluted solution of pyraflufen-ethyl herbicide combined with polyferulates. Samples of treated leaves were taken at 2 h and 24 h after treatment. An extraction procedure following successive steps was used to describe the distribution of pyraflufen-ethyl residues on and in plant leaves. Four fractions of pesticide residues were recovered: (i) the fraction of pesticide susceptible to wash-off by rain that was assumed to correspond to the water-washable fraction, (ii) the fraction of pesticide having adsorbed on the leaf surface that was assumed to correspond to the ethanol-extracted fraction, (iii) the fraction of pesticide having penetrated into the cuticle that was assumed to correspond to the hexane-extracted fraction, and (iv) the fraction of pesticide having penetrated into the foliar tissues that was assumed to correspond to the bound residues fraction.

[8] = pyraflufen-ethyl at 25% of recommended dose
[9] = pyraflufen-ethyl at 50% of recommended dose
[10] = pyraflufen-ethyl at 75% of recommended dose
[11] = pyraflufen-ethyl at 100% of recommended dose

CCOC(=O)C(Cl)Cc1cc(-n2nc(C)n(C(F)F)c2=O)c(F)cc1Cl (centres unmarked) [Carfentrazone-ethyl]
Desiccation (%) ([1]; application rate 30): 73%
Desiccation (%) ([1]; application rate 60): 96%
Desiccation (%) [2]: 56%

CCOC1Oc2ccc(OS(C)(=O)=O)cc2C1(C)C (centres unmarked) [Ethofumesate]
Herbicide activity (fresh weight reduction compared to untreated plants) [3]: 0

COc1cc(/C=C/C(=O)O)ccc1O [Ferulic acid, (2E)-3-(4-hydroxy-3methoxyphenyl)prop-2-enoic acid]
Desiccation (%) ([1]; application rate 12): 3%
effect in combination with the herbicides tested (synergistic / antagonist) [1]: antagonist

O=C(O)CNCP(=O)(O)O [Glyphosate]
Herbicide activity ([4]; application rate 550 g a.i. ha^−1): 59%

CCCCCCCCC(=O)O [Pelargonic acid]
Desiccation (%) ([1]; application rate 2720): 51%
Desiccation (%) ([1]; application rate 5440): 68%
Desiccation (%) ([1]; application rate 10880): 95%

COc1cnc(OC)n2nc(NS(=O)(=O)c3c(OCC(F)F)cccc3C(F)(F)F)nc12 [Penoxsulam]
Herbicide activity ([4]; application rate 30 g a.i. ha^−1): 16%

COC(=O)Nc1cccc(OC(=O)Nc2cccc(C)c2)c1 [Phenmedipham]
Herbicide activity (fresh weight reduction compared to untreated plants) [3]: 3

CCCC(=NOCC(C)Oc1ccc(Cl)cc1)C1=C(O)CC(C2CCCSC2)CC1=O (centres unmarked) [Profoxydim]
Herbicide activity (fresh weight reduction compared to untreated plants) [3]: 45
Herbicide activity ([4]; application rate 110 g a.i. ha^−1): 34%

CCOC(=O)COc1cc(-c2nn(C)c(OC(F)F)c2Cl)c(F)cc1Cl [Pyraflufen-ethyl]
Desiccation (%) ([1]; application rate 5.3): 60%
Desiccation (%) ([1]; application rate 10.6): 78%
Desiccation (%) ([1]; application rate 15.9): 85%
Desiccation (%) ([1]; application rate 21.2): 90%
Fresh weight of the plants (% of control) [5, 8]: 39 % of control
Quantum yield of PSII [5, 8]: 0.6
Fresh weight of the plants (% of control) [5, 9]: 22 % of control
Quantum yield of PSII [5, 9]: 0.461
Fresh weight of the plants (% of control) [5, 10]: 14 % of control
Quantum yield of PSII [5, 10]: 0.385
Fresh weight of the plants (% of control) [5, 11]: 10 % of control
Quantum yield of PSII [5, 11]: 0.335
Desiccation (%) [6]: 79%
pyraflufen-ethyl in Bound residues fraction ([7]; 2 h after treatment): 0.16 μg/g of fresh weight leaves
pyraflufen-ethyl in Ethanol-extracted fraction ([7]; 2 h after treatment): 1.88 μg/g of fresh weight leaves
pyraflufen-ethyl in Hexane-extracted fraction ([7]; 2 h after treatment): 0.51 μg/g of fresh weight leaves
pyraflufen-ethyl in Water-washable fraction ([7]; 2 h after treatment): 3.34 μg/g of fresh weight leaves
pyraflufen-ethyl in Bound residues fraction ([7]; 24 h after treatment): 0.12 μg/g of fresh weight leaves
pyraflufen-ethyl in Ethanol-extracted fraction ([7]; 24 h after treatment): 1.59 μg/g of fresh weight leaves
pyraflufen-ethyl in Hexane-extracted fraction ([7]; 24 h after treatment): 0.94 μg/g of fresh weight leaves
pyraflufen-ethyl in Water-washable fraction ([7]; 24 h after treatment): 3.1 μg/g of fresh weight leaves

COC(=O)c1cccc(C)c1S(=O)(=O)NC(=O)Nc1nc(OCC(F)(F)F)nc(N(C)C)n1 [Triflusulfuron-methyl]
Herbicide activity (fresh weight reduction compared to untreated plants) [3]: 34

Diferulic acid
Desiccation (%) ([1]; application rate 12): 2%
effect in combination with the herbicides tested (synergistic / antagonist) [1]: antagonist
